Data on three molecules can be found in article PMC2873993, “Comparative Therapeutic Effects of Velaglucerase Alfa and Imiglucerase in a Gaucher Disease Mouse Model” (PLoS ONE, 2010).

The target in one series is T1, Vela (Homo sapiens, UniProt P04062).
T1 construct: purchased HGT/Shire, Cambridge, MA Lot#FEC06-002
T1 sequence (P04062 40-536): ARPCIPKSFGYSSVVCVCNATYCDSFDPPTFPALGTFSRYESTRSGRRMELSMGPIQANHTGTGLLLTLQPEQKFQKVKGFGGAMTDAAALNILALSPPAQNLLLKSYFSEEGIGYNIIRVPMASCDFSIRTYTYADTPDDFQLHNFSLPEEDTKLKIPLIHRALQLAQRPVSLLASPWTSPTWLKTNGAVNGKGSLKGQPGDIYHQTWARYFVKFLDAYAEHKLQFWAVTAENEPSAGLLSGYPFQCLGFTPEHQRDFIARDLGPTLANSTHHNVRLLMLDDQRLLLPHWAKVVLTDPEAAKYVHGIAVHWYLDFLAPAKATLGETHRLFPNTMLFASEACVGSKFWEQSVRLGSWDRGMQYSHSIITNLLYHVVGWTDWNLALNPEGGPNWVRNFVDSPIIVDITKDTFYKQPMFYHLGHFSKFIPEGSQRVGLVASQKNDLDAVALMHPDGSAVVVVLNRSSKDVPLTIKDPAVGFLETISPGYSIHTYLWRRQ
The experiment in a line: Inhibition of Vela by active site-directed GCase inhibitors (4MU-Glc substrate). Format: biochemical. To be noted: 8 pmol enzyme protein; SE ≤20%.

The target of a further series is T2, Imig (Homo sapiens, UniProt P04062, R534H).
T2 construct: purchased Genzyme, Cambridge, MA Lot#A7021H04; host or cells: CHO cells
T2 sequence (P04062 40-536 R534H): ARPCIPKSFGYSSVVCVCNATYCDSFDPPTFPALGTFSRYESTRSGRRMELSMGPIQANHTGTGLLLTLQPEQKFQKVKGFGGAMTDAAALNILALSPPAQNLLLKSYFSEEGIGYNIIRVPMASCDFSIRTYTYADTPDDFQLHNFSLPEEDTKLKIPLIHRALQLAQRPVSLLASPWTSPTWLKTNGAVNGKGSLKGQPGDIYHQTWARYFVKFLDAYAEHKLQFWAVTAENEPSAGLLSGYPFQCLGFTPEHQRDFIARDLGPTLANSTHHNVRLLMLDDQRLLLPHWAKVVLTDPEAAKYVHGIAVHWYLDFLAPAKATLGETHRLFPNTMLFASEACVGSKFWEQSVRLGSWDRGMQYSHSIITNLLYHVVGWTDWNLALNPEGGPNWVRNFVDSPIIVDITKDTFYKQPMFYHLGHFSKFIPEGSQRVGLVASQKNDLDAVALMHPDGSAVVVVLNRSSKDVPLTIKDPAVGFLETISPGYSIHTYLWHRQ
The experiment in a line: Inhibition of Imig by active site-directed GCase inhibitors (4MU-Glc substrate). Format: biochemical. The conditions noted are these: 8 pmol enzyme protein; SE ≤20%.

The subject of the next series is 9 V/null mouse. More on the design: method as in PMID 17509920. The conditions noted are these: cited from earlier work.
Another series relates to patients. The conditions noted are these: Gaucher disease patients; cited from earlier work.

Turning to `O[C@H]1[C@H](O)[C@@H](O)[C@@H]2O[C@@H]2[C@@H]1O` (racemic) [Conduritol B epoxide], the IC50 (as a rule, the point on the concentration scale where inhibition reaches its midpoint) on Vela was found to be 99.8 µM; against Imig, 146 µM.
In the case of `CCCCCCCC(=O)N[C@H](CN1CCCC1)[C@H](O)c1ccc2c(c1)OCCO2` [Genz 112638], the “effect on alveolar Gaucher cells” value with 9 V/null mouse is given as “clearance of the alveolar Gaucher cells”.

B1: alglucerase (protein, UniProt P04062 40-536, looked up)
Lysosomal acid …: ARPCIPKSFGYSSVVCVCNATYCDSFDPPTFPALGTFSRYESTRSGRRMELSMGPIQANHTGTGLLLTLQPEQKFQKVKGFGGAMTDAAALNILALSPPAQNLLLKSYFSEEGIGYNIIRVPMASCDFSIRTYTYADTPDDFQLHNFSLPEEDTKLKIPLIHRALQLAQRPVSLLASPWTSPTWLKTNGAVNGKGSLKGQPGDIYHQTWARYFVKFLDAYAEHKLQFWAVTAENEPSAGLLSGYPFQCLGFTPEHQRDFIARDLGPTLANSTHHNVRLLMLDDQRLLLPHWAKVVLTDPEAAKYVHGIAVHWYLDFLAPAKATLGETHRLFPNTMLFASEACVGSKFWEQSVRLGSWDRGMQYSHSIITNLLYHVVGWTDWNLALNPEGGPNWVRNFVDSPIIVDITKDTFYKQPMFYHLGHFSKFIPEGSQRVGLVASQKNDLDAVALMHPDGSAVVVVLNRSSKDVPLTIKDPAVGFLETISPGYSIHTYLWRRQ
modifications: mannosyl-terminated glycans
As for B1, the “patients who developed an IgG antibody response” value in the series with patients is on record as 13–15%.
